Test system: HepG2 cells
Assay: LC-MS/MS targeted intracellular metabolomics
Format: cell-based, human
Conditions: Suppl Fig 9; C3 (EC15 ATP), 48 h; Bezafibrate lines = Plates 1-6 in order
Experimental: Metabolite profiling of cells was performed directly in the same 96-well plate according to a standardized protocol described below. In order to prevent any interaction with the cell material, the automatic sampler was adjusted to pick up the sample from the supernatant at a specified depth avoiding the contact with the bottom of the plate.
After the initial quenching step (50 μL isopropanol 80%), additional 70 μL of isopropanol 80%, containing internal standards (methionine-D3, tryptophan-D5, arginine-13C6-15N4, Boc-Ala-Gly-Gly-Gly-OH, coenzyme Q1, coenzyme Q2, coenzyme Q4) were added to each well. The internal standards were used for quality control by visual inspection (signal intensity, peak shape, retention time); they were not used for normalization. Afterwards, plates were shaken for 5 min, 750 rpm at 20 °C, and placed for 30 s in the ultrasonic device. Then, the plates were centrifugated for 10 min, at 5485 g, 15 °C. Further, 2.5 μL of the extract were injected each for reversed-phase and hydrophilic interaction liquid chromatography followed by MS/MS detection (AB Sciex QTrap 6500+) using the positive and negative ionization mode. For reverse-phase high-performance liquid chromatography (RP-HPLC, Ascentis Express C18, 5 cm × 2.1 mm, 2.7 μm Supelco), gradient elution was performed with mobile phase A, water/methanol/0.1 M ammonium formate (1:1:0.02, w/w), and B, methyl-tert-butylether/2-propanol/methanol/0.1 M ammonium formate/formic acid (4:2:1:0.07:0.035, w/w) 5.9 min linear gradient: 0 min 100% A, 0.5 min 75% A, 5.9 min 10% A; followed by 0% A until 6.7 min; re-equilibration at 100% A until 7.7 min; flow rate 600 μL/min; column temperature 40 °C HILIC (ZIC-HILIC, 2.1 × 100 mm, 3.5 μm, Supelco) gradient elution was performed with mobile phase C, acetonitrile/water (99:1, v/v) with 0.2% (v) acetic acid, and D, 7 mM ammonium acetate with 0.2% (v) acetic acid (5.0 min linear gradient: 0 min 100% C, 5 min 10% C; followed by a linear gradient back to 100%C until 6.5 min; re-equilibration at 100% C until 7.5 min; flow rate 600 μL/min; column temperature 40 °C.). Two LC-MS systems with identical configuration were used for the analysis. Normalization to lyophilized reference samples (see below) was used to compensate for variation from between analytical batches. The efficiency of this normalization procedure was checked by principal component analysis (PCA), confirming that Pool samples from different analytical batches clustered together.
Reference samples derived from lyophilized untreated HepG2 cells (technical control samples) were measured in parallel throughout the entire analytical process. Data were normalized against the median of these lyophilized HepG2 cells reference samples, to give normalized ratios (performed for each sample per metabolite). This compensated for inter- and intra-instrumental variation. To correct for small differences in cell numbers within and between different treatment groups, data were also normalized to the within sample median, as described in detail by (Ramirez et al. [2018]). For intracellular metabolomic analysis, the median of each sample was calculated across all the 221 measured metabolites.
To generate metabolic profiles for the different treatments, heteroscedastic t test (Welch test) was applied to log-transformed normalized metabolite data to compare treated groups with their respective controls.
Principal component analysis (PCA) and hierarchical clustering (HCA) analyses were performed using R software environment (https://www.r-project.org/). PCA was conducted using the ropls package (Thévenot et al. [2015]) with log10-transformed input data and standard scaling. HCA was performed using the pvclust package (Suzuki et al. [2019]), (https://CRAN.R-project.org/package=pvclust). Input: log10(Ratio), clustering method: Ward D2, distance method: Manhattan, bootstrapping: 10000 times.

O=C(O)c1cc(Oc2ccc(C(F)(F)F)cc2Cl)ccc1[N+](=O)[O-] [Acifluorfen]
2'-Deoxycytidine level vs controls: 0.56
5-Hydroxytryptophan level vs controls: 0.74
Carnitine level vs controls: 0.98
Ceramide (d18:1.C20:0) level vs controls: 0.74
Ceramide (d18:1.C24:1) level vs controls: 0.72
Ceramide (d18:1.C24:2) level vs controls: 0.68
Ceramide (d18:2.C24:1) level vs controls: 0.64
Choline plasmalogen (C36:4) level vs controls: 0.75
Choline plasmalogen (C36:5) level vs controls: 0.70
Creatine level vs controls: 0.87
Glycerol-3-phosphate level vs controls: 0.90
Hexanoylcarnitine level vs controls: 0.70
Ketoleucine level vs controls: 0.80
Lysophosphatidylcholine (C14:0) level vs controls: 1.75
Lysophosphatidylcholine (C16:0) level vs controls: 1.17
Lysophosphatidylcholine (C16:1) level vs controls: 1.22
Lysophosphatidylcholine (C20:4) level vs controls: 0.94
Lysophosphatidylcholine (C24:0) level vs controls: 1.25
Lysophosphatidylcholine (C24:1) level vs controls: 1.00
Lysophosphatidylethanolamine (C16:0) level vs controls: 1.67
Lysophosphatidylethanolamine (C18:0) level vs controls: 1.69
Lysophosphatidylethanolamine (C18:1) level vs controls: 1.09
N-Acetylaspartate level vs controls: 1.50
Pantothenic acid level vs controls: 0.68
Phosphatidylcholine (C32:0) level vs controls: 0.82
Phosphatidylcholine (C34:1) level vs controls: 0.81
Phosphatidylcholine (C34:3) level vs controls: 1.23
Phosphatidylcholine (C36:1) level vs controls: 0.76
Phosphatidylcholine (C36:2) level vs controls: 0.78
Phosphatidylcholine (C36:3) level vs controls: 0.82
Phosphatidylcholine (C36:4) level vs controls: 0.66
Phosphatidylcholine (C36:5) level vs controls: 0.71
Phosphatidylethanolamine (C36:3) level vs controls: 0.86
Phosphatidylethanolamine (C38:3) level vs controls: 1.05
Phosphatidylethanolamine (C38:5) level vs controls: 0.82
Phosphatidylethanolamine (C38:6) level vs controls: 0.91
Phosphatidylethanolamine (C40:7) level vs controls: 0.68
Phosphocholine level vs controls: 0.79
Propionylcarnitine level vs controls: 0.79
S-Adenosylhomocysteine level vs controls: 0.84
Sphingomyelin (d32:2) level vs controls: 0.65
Sphingomyelin (d33:1) level vs controls: 0.93
Sphingomyelin (d34:0) level vs controls: 1.12
Sphingomyelin (d35:1) level vs controls: 0.85
Sphingomyelin (d36:1) level vs controls: 0.84
Sphingomyelin (d36:2) level vs controls: 0.76
Sphingomyelin (d37:1) level vs controls: 0.89
Sphingomyelin (d38:1) level vs controls: 0.89
Sphingomyelin (d38:2) level vs controls: 0.83
Sphingomyelin (d39:1) level vs controls: 1.01
Sphingomyelin (d40:2) level vs controls: 0.87
Sphingomyelin (d41:2) level vs controls: 0.90
Sphingomyelin (d42:2) level vs controls: 0.85
Taurine level vs controls: 0.61
Triacylglycerol (C34:1.C18:3) level vs controls: 1.73
Triacylglycerol (C34:2.C18:0) level vs controls: 2.66
Triacylglycerol (C34:2.C18:1) level vs controls: 2.04
Triacylglycerol (C36:4.C16:0) level vs controls: 1.86
Triacylglycerol (C36:4.C18:0) level vs controls: 2.14

Cc1cccc(Nc2cc(Cl)nc(SCC(=O)O)n2)c1C [Wy-14643]
2'-Deoxycytidine level vs controls: 0.75
5-Hydroxytryptophan level vs controls: 0.85
Carnitine level vs controls: 0.99
Ceramide (d18:1.C20:0) level vs controls: 0.66
Ceramide (d18:1.C24:1) level vs controls: 0.92
Ceramide (d18:1.C24:2) level vs controls: 0.71
Ceramide (d18:2.C24:1) level vs controls: 0.97
Choline plasmalogen (C36:4) level vs controls: 1.00
Choline plasmalogen (C36:5) level vs controls: 1.03
Creatine level vs controls: 0.85
Glycerol-3-phosphate level vs controls: 0.72
Hexanoylcarnitine level vs controls: 0.93
Ketoleucine level vs controls: 0.86
Lysophosphatidylcholine (C14:0) level vs controls: 1.51
Lysophosphatidylcholine (C16:0) level vs controls: 1.26
Lysophosphatidylcholine (C16:1) level vs controls: 1.06
Lysophosphatidylcholine (C20:4) level vs controls: 1.28
Lysophosphatidylcholine (C24:0) level vs controls: 1.50
Lysophosphatidylcholine (C24:1) level vs controls: 1.20
Lysophosphatidylethanolamine (C16:0) level vs controls: 1.18
Lysophosphatidylethanolamine (C18:0) level vs controls: 1.26
Lysophosphatidylethanolamine (C18:1) level vs controls: 1.12
N-Acetylaspartate level vs controls: 1.22
Pantothenic acid level vs controls: 0.74
Phosphatidylcholine (C32:0) level vs controls: 0.81
Phosphatidylcholine (C34:1) level vs controls: 0.91
Phosphatidylcholine (C34:3) level vs controls: 1.04
Phosphatidylcholine (C36:1) level vs controls: 0.96
Phosphatidylcholine (C36:2) level vs controls: 0.86
Phosphatidylcholine (C36:3) level vs controls: 0.93
Phosphatidylcholine (C36:4) level vs controls: 0.98
Phosphatidylcholine (C36:5) level vs controls: 0.92
Phosphatidylethanolamine (C36:3) level vs controls: 0.82
Phosphatidylethanolamine (C38:3) level vs controls: 0.92
Phosphatidylethanolamine (C38:5) level vs controls: 0.89
Phosphatidylethanolamine (C38:6) level vs controls: 0.96
Phosphatidylethanolamine (C40:7) level vs controls: 0.92
Phosphocholine level vs controls: 0.91
Propionylcarnitine level vs controls: 0.97
S-Adenosylhomocysteine level vs controls: 1.03
Sphingomyelin (d32:2) level vs controls: 0.79
Sphingomyelin (d33:1) level vs controls: 1.13
Sphingomyelin (d34:0) level vs controls: 1.04
Sphingomyelin (d35:1) level vs controls: 0.99
Sphingomyelin (d36:1) level vs controls: 0.90
Sphingomyelin (d36:2) level vs controls: 0.97
Sphingomyelin (d37:1) level vs controls: 0.81
Sphingomyelin (d38:1) level vs controls: 0.84
Sphingomyelin (d38:2) level vs controls: 0.74
Sphingomyelin (d39:1) level vs controls: 0.94
Sphingomyelin (d40:2) level vs controls: 0.81
Sphingomyelin (d41:2) level vs controls: 0.79
Sphingomyelin (d42:2) level vs controls: 0.79
Taurine level vs controls: 0.97
Triacylglycerol (C34:1.C18:3) level vs controls: 1.01
Triacylglycerol (C34:2.C18:0) level vs controls: 1.14
Triacylglycerol (C34:2.C18:1) level vs controls: 1.01
Triacylglycerol (C36:4.C16:0) level vs controls: 1.09
Triacylglycerol (C36:4.C18:0) level vs controls: 1.18

From PMC10693528, “A high-throughput metabolomics in vitro platform for the characterization of hepatotoxicity” (Cell Biology and Toxicology, 2023)
